Data: patent US9308238B2, “Compositions and methods for modulating EMT and uses thereof” (Whitehead Institute for Biomedical Research, priority 2010, dated 2016)

Key:
Type in all cases: cell-based, human
luminal MECs [1] = assay: Migration assay, primary luminal cells after pre-treatment; details: 5-day treatment
Text: (§1) FIGS. 7A-7G. Migratory and self-renewal properties in primary MECs: inhibition and induction. (FIG. 7A) Mammosphere Assay: microscopy images of mammospheres and quantification of mammosphere formation by purified basal, luminal and unsorted MEC populations. Primary spheres were allowed to form over a period of 7 days, dissociated and seeded for secondary sphere formation, n(mammosphere)/1000 cells, n=48, (FIG. 7B) Migration Assay: microscopy images of migrated cells in Boyden Chambers and quantification, n=6. (FIG. 7C) Mammosphere Assay: basal cells were seeded into assay after a 5 day pre-treatment with TGF-beta inhibitors A83-01 and […] (SB43, both inhibitors at 10 μM) as well as recombinant SFRP1 (1 μg/ml), n(mammospheres)/1000 cells, n=6. (FIG. 7D) Migration Assay: basal cells were seeded into migration assays treated after 5 day pre-treatment as described in (C), n=24. (FIG. 7E) Mammosphere Assay: luminal cells were seeded into the assay following a 5 day pre-treatment with TGF-beta 1 (5 ng/ml), Wnt5a (250 ng/ml), anti-E-Cadherin antibody (1 μg/ml) plus anti-DKK1 antibody (10 μg/ml), and a cocktail of all factors added together (iEMT-II), n(mammospheres)/1000 cells, n=24. (FIG. 7F) Migration Assay: luminal cells were seeded into Boyden Chambers following a 5 day pre-treatment as described in (E), n=6. […]

luminal MECs [2] = assay: Growth curve of luminal cells in monolayers; details: luminal cultures
Protocol: FIGS. 14A-14D. Modulation of migratory and self-renewal abilities in basal and luminal MECs. (FIG. 14A) Growth curve: basal cells treated every 48 hrs with indicated factors, TGF-beta-type 1 receptor inhibitors A83-01 and SB431542 (10 μM), SFRP1 (1 μg/ml); cells were counted at indicated time points, n=2. (FIG. 14B) Growth curve: luminal cells treated every 48 hrs with indicated factors, TGF-beta 1 (5 ng/ml), Wnt5a (250 ng/ml), anti-DKK1-(10 μg/ml) and anti-E-Cadherin antibodies (1 μg/ml) or a combination of all factors (iEMT-II); cells were counted at indicated time points, n=2, (FIG. 14C) Microscopy images of basal cells treated as described in (A), at 4 days/before first passage. (FIG. 14D) Microscopy images of luminal cells treated as described in (B), at 4 days/before first passage.
Primary mammary epithelial cell culture. Single-cell suspensions of primary human mammary epithelial cells (MECs) were generated from reduction mammoplasties of pre-menopausal women as previously described (Stingl et al., 2001), Data from three donors are included in this study. Primary MECs were cultured on collagen I-coated plates (Millipore) in MEGM medium (Lonza) supplemented with 1% Fetal Bovine Serum in a humidified 4% O2, 5% CO2, atmosphere.

HMLE^24+ cells = assay: Mammosphere assay, HMLE^24+ cells after 14 day treatment
Protocol: FIGS. 5A-5H. Concomitant stimulation of Wnt and TGF-beta pathways allows HMLE^24+ cells to enter into a mesenchymal and SC-like state. (FIG. 5A) RT-PCR: N-Cadherin, Zeb1 and Zeb2, L32 was loading control, n=3. Prior RNA isolation, HMLE^24+-shGFP or -shSFRP1 (stable knockdown of SFRP1, FIG. 12A) cells were treated for 3 days with daily doses of indicated factors: anti-DKK1 antibody (10 μg/ml), anti-E-Cadherin antibody (1 μg/ml), TGF-beta 1 (5 ng/ml), Wnt5a (250 ng/ml), (FIG. 5B) Brightfield microscopy: images of control, TGF-beta- and iEMT-cocktail treated HMLE^24+ cells after 14 days of treatment as indicated (see also FIG. 12D). (FIG. 5C) RT-PCR: Zeb1, Zeb2, E-Cadherin and N-Cadherin, L32 was loading control, n=3. After 14 day treatment, cells were expanded in absence of further stimulation for 4 passages. Shown are PBS-treated control HMLE^24+-shGFP and HMLE^24+-shSFRP1 cells, two HMLE^24+-shGFP cultures treated with TGF-beta 1 (TGF-β-a and -b), two HMLE^24+-shSFRP1 cultures treated with the iEMT-cocktail (iEMT-a and -b). […] (FIG. 5G) Lung metastasis: cells expanded for 8 passages after cessation of treatment as described in (C) were transformed with RAS; 1.0×10^5 cells were injected into the mammary fat pads of mice; GFP-labeled metastases on the surface of the lungs were quantified; *control vs. all other groups, p<0.05, n=5 mice/group. […]

basal MECs = assay: Migration assay, primary basal cells after pre-treatment; details: 5 day pre-treatment
Text: as §1

TGF-beta 1: recombinant TGF-beta 1 protein, used at 5 ng/ml
increase in motile cells (luminal MECs [1]): 8 fold | proliferation in monolayers (luminal MECs [2]): significantly reduced | increase in mammosphere formation vs untreated control cells (HMLE^24+ cells): 10 fold

B1: SFRP1: Recombinant human SFRP1 protein (R&D Systems), secreted decoy receptor binding canonical and non-canonical Wnt ligands (protein, UniProt Q8N474 32-314, looked up)
Secreted frizzled-related …: SEYDYVSFQSDIGPYQSGRFYTKPPQCVDIPADLRLCHNVGYKKMVLPNLLEHETMAEVKQQASSWVPLLNKNCHAGTQVFLCSLFAPVCLDRPIYPCRWLCEAVRDSCEPVMQFFGFYWPEMLKCDKFPEGDVCIAMTPPNATEASKPQGTTVCPPCDNELKSEAIIEHLCASEFALRMKIKEVKKENGDKKIVPKKKKPLKLGPIKKKDLKKLVLYLKNGADCPCHQLDNLSHHFLIMGRKVKSQYLLTAIHKWDKKNKEFKNFMKKMKNHECPTFQSVFK
reduction of motility (basal MECs): 3 fold
